Like-named read-outs stand apart in the source and are kept apart here.
Experiments:
barnyardgrass [1] = assay: Test B pre-/postemergence herbicide test; format: in vivo, Echinochloa crus-galli
Summary of the method: (§1)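 Species tested were Echinochloa crus-galli, Ipomoea coccinea, Xanthium strumarium and Oryza sativa, treated both before emergence and at the 1- to 4-leaf stage; rice and barnyardgrass were also tested under flooding at 2 leaves. Greenhouse incubation lasted 13–15 days before visual 0–100 scoring.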

Surinam grass = assay: Test B pre-/postemergence herbicide test; format: in vivo, Urochloa decumbens
Summary of the method: (§2)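 Pre: seeds sown, then sprayed. Post: 1–4-leaf plants (2–18 cm) sprayed at the same time. Paddy: flooded, treated at 2-leaf stage. Formulation: non-phytotoxic solvent with surfactant. Greenhouse 13–15 days; visual 0–100 score relative to controls.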

cocklebur = assay: Test B pre-/postemergence herbicide test; format: in vivo, Xanthium strumarium
Summary of the method: as §1

corn = assay: Test B pre-/postemergence herbicide test; format: in vivo, Zea mays
Summary of the method: as §2

large crabgrass = assay: Test B pre-/postemergence herbicide test; format: in vivo, Digitaria sanguinalis
Summary of the method: as §2

giant foxtail = assay: Test B pre-/postemergence herbicide test; format: in vivo, Setaria faberi
Summary of the method: as §2

lambsquarters = assay: Test B pre-/postemergence herbicide test; format: in vivo, Chenopodium album
Summary of the method: as §2

morningglory = assay: Test B pre-/postemergence herbicide test; format: in vivo, Ipomoea coccinea
Summary of the method: as §1

velvetleaf = assay: Test B pre-/postemergence herbicide test; format: in vivo, Abutilon theophrasti
Summary of the method: as §2

blackgrass = assay: Test B postemergence herbicide test; format: in vivo, Alopecurus myosuroides; settings: Postemergence, scale 0 (no effect) to 100 (complete control); for Plant response rating, Blackgrass: 500 g ai/ha, visual rating after 13 to 15 days
Summary of the method: (§3)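 Plants grow to 1- to 4-leaf stage (2–18 cm) for postemergence spraying, or to 2-leaf stage for the paddy test. Formulated compound is applied. Greenhouse holding lasts 13–15 days. Response is scored visually relative to controls, 0 no effect to 100 complete control; a dash means no result.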

wheat = assay: Test B postemergence herbicide test; format: in vivo, Triticum aestivum; settings: Postemergence, scale 0 (no effect) to 100 (complete control); for Plant response rating, Wheat: 500 g ai/ha, visual rating after 13 to 15 days
Summary of the method: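 After treating 2-leaf paddy plants or 2–18 cm postemergence plants (1 to 4 leaves) with formulated chemical, researchers kept them in a greenhouse for 13–15 days. Effects were judged visually versus controls: 0 indicates none, 100 total control.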

rice = assay: Test B flooded paddy test; format: in vivo, Oryza sativa; settings: 1000 g ai/ha, visual rating, scale 0 to 100 (0 no effect, 100 complete control), 13 to 15 days
Summary of the method: as §3

[2] = test system: small flower umbrella sedge; assay: Test B flooded paddy test; format: in vivo, Cyperus difformis; settings: 1000 g ai/ha, visual rating, scale 0 to 100 (0 no effect, 100 complete control), 13 to 15 days
Summary of the method: as §3

ducksalad = assay: Test B flooded paddy test; format: in vivo, Heteranthera limosa; settings: 1000 g ai/ha, visual rating, scale 0 to 100 (0 no effect, 100 complete control), 13 to 15 days
Summary of the method: as §3

barnyardgrass [3] = assay: Test B flooded paddy test; format: in vivo, Echinochloa crus-galli; settings: 1000 g ai/ha, visual rating, scale 0 to 100 (0 no effect, 100 complete control), 13 to 15 days
Summary of the method: as §3

[4] = Postemergence, 125 g ai/ha, scale 0 (no effect) to 100 (complete control)
[5] = Postemergence, 500 g ai/ha, visual rating after 13 to 15 days, scale 0 (no effect) to 100 (complete control)
[6] = Preemergence, 500 g ai/ha, scale 0 to 100
[7] = preemergence, 125 g ai/ha, 0 to 100 scale, 0 is no effect, 100 is complete control

CCn1nc(C(C)(C)C)cc1C(=O)Nc1cc(C(=O)N(C)C)ccc1F [Compound 6, N-[5-[(dimethylamino)carbonyl]-2-fluorophenyl]-3-(1,1-dimethylethyl)-1-ethyl-1H-pyrazole-5-carboxamide]
pest or weed control at 125 g/ha (barnyardgrass [1]; Echinochloa crus-galli, post-emergence, Postemergence, 125 g ai/ha, scale 0 (no effect) to 100 (complete control), read-out: Barnyardgrass plant response rating): 0% | pest or weed control at 500 g/ha (barnyardgrass [1]; Echinochloa crus-galli, post-emergence, Postemergence, 500 g ai/ha, visual rating after 13 to 15 days, scale 0 (no effect) to 100 (complete control), read-out: Plant response rating, Barnyardgrass): 80% | pest or weed control at 500 g/ha (barnyardgrass [1]; Echinochloa crus-galli, pre-emergence, Preemergence, 500 g ai/ha, scale 0 to 100, read-out: Barnyardgrass plant response rating): 100% | pest or weed control at 125 g/ha (Surinam grass; Urochloa decumbens, post-emergence, Postemergence, 125 g ai/ha, scale 0 (no effect) to 100 (complete control), read-out: Surinam Grass plant response rating): 10% | pest or weed control at 500 g/ha (Surinam grass; Urochloa decumbens, post-emergence, Postemergence, 500 g ai/ha, visual rating after 13 to 15 days, scale 0 (no effect) to 100 (complete control), read-out: Plant response rating, Surinam Grass): 60% | pest or weed control at 500 g/ha (Surinam grass; Urochloa decumbens, pre-emergence, Preemergence, 500 g ai/ha, scale 0 to 100, read-out: Surinam Grass plant response rating): 100% | pest or weed control at 125 g/ha (cocklebur; Xanthium strumarium, post-emergence, Postemergence, 125 g ai/ha, scale 0 (no effect) to 100 (complete control), read-out: Cocklebur plant response rating): 0% | pest or weed control at 500 g/ha (cocklebur; Xanthium strumarium, post-emergence, Postemergence, 500 g ai/ha, visual rating after 13 to 15 days, scale 0 (no effect) to 100 (complete control), read-out: Plant response rating, Cocklebur): 80% | pest or weed control at 500 g/ha (cocklebur; Xanthium strumarium, pre-emergence, Preemergence, 500 g ai/ha, scale 0 to 100, read-out: Cocklebur plant response rating): 100% | plant injury at 125 g/ha (corn; Zea mays, post-emergence, Postemergence, 125 g ai/ha, scale 0 (no effect) to 100 (complete control), read-out: Corn plant response rating): 0% | Corn plant response rating (crop injury, 0 = no effect, 100 = complete kill) at 500 g/ha (corn; Zea mays, post-emergence, Postemergence, 500 g ai/ha, visual rating after 13 to 15 days, scale 0 (no effect) to 100 (complete control)): 60% | plant injury at 500 g/ha (corn; Zea mays, pre-emergence, Preemergence, 500 g ai/ha, scale 0 to 100, read-out: Corn plant response rating): 90% | pest or weed control at 125 g/ha (large crabgrass; Digitaria sanguinalis, post-emergence, Postemergence, 125 g ai/ha, scale 0 (no effect) to 100 (complete control), read-out: Crabgrass, Large plant response rating): 20% | pest or weed control at 500 g/ha (large crabgrass; Digitaria sanguinalis, post-emergence, Postemergence, 500 g ai/ha, visual rating after 13 to 15 days, scale 0 (no effect) to 100 (complete control), read-out: Plant response rating, Crabgrass, Large): 30% | pest or weed control at 500 g/ha (large crabgrass; Digitaria sanguinalis, pre-emergence, Preemergence, 500 g ai/ha, scale 0 to 100, read-out: Crabgrass, Large plant response rating): 100% | pest or weed control at 125 g/ha (giant foxtail; Setaria faberi, post-emergence, 336 h, Postemergence, 125 g ai/ha, scale 0 (no effect) to 100 (complete control), read-out: Foxtail, Giant plant response rating): 10% | pest or weed control at 500 g/ha (giant foxtail; Setaria faberi, post-emergence, 336 h, Postemergence, 500 g ai/ha, visual rating after 13 to 15 days, scale 0 (no effect) to 100 (complete control), read-out: Plant response rating, Foxtail, Giant): 20% | pest or weed control at 500 g/ha (giant foxtail; Setaria faberi, pre-emergence, 336 h, Preemergence, 500 g ai/ha, scale 0 to 100, read-out: Foxtail, Giant plant response rating): 100% | pest or weed control at 125 g/ha (lambsquarters; Chenopodium album, post-emergence, 336 h, Postemergence, 125 g ai/ha, scale 0 (no effect) to 100 (complete control), read-out: Lambsquarters plant response rating): 30% | pest or weed control at 500 g/ha (lambsquarters; Chenopodium album, post-emergence, 336 h, Postemergence, 500 g ai/ha, visual rating after 13 to 15 days, scale 0 (no effect) to 100 (complete control), read-out: Plant response rating, Lambsquarters): 100% | pest or weed control at 500 g/ha (lambsquarters; Chenopodium album, pre-emergence, 336 h, Preemergence, 500 g ai/ha, scale 0 to 100, read-out: Lambsquarters plant response rating): 100% | pest or weed control at 125 g/ha (morningglory; Ipomoea, post-emergence, 336 h, Postemergence, 125 g ai/ha, scale 0 (no effect) to 100 (complete control), read-out: Morningglory plant response rating): 0% | pest or weed control at 500 g/ha (morningglory; Ipomoea, post-emergence, 336 h, Postemergence, 500 g ai/ha, visual rating after 13 to 15 days, scale 0 (no effect) to 100 (complete control), read-out: Plant response rating, Morningglory): 0% | pest or weed control at 125 g/ha (velvetleaf; Abutilon theophrasti, post-emergence, 336 h, Postemergence, 125 g ai/ha, scale 0 (no effect) to 100 (complete control), read-out: Velvetleaf plant response rating): 0% | pest or weed control at 500 g/ha (velvetleaf; Abutilon theophrasti, post-emergence, 336 h, Postemergence, 500 g ai/ha, visual rating after 13 to 15 days, scale 0 (no effect) to 100 (complete control), read-out: Plant response rating, Velvetleaf): 60% | pest or weed control at 500 g/ha (velvetleaf; Abutilon theophrasti, pre-emergence, 336 h, Preemergence, 500 g ai/ha, scale 0 to 100, read-out: Velvetleaf plant response rating): 100% | pest or weed control at 125 g/ha (blackgrass; Alopecurus myosuroides, post-emergence, 336 h, 125 g ai/ha, read-out: Blackgrass plant response rating): 20% | Plant response rating, Blackgrass (blackgrass): 90 | Plant response rating, Wheat (wheat): 40 | plant injury at 125 g/ha (wheat; Triticum aestivum, post-emergence, 336 h, 125 g ai/ha, read-out: Wheat plant response rating): 0% | plant injury at 1000 g/ha (rice; Oryza sativa, 336 h, read-out: Rice plant response rating): 80% | pest or weed control at 1000 g/ha ([2]; Cyperus difformis, 336 h, read-out: Sedge, Umbrella plant response rating): 90% | pest or weed control at 1000 g/ha (ducksalad; Heteranthera limosa, 336 h, read-out: Ducksalad plant response rating): 90% | pest or weed control at 1000 g/ha (barnyardgrass [3]; Echinochloa crus-galli, 336 h, read-out: Barnyardgrass plant response rating): 90%

CCCCn1nc(C(C)(C)C)cc1C(=O)Nc1cccc(C(=O)NCC)c1 [Compound 41]
Barnyardgrass plant response rating (barnyardgrass [1]; [4]): 10 | Plant response rating, Barnyardgrass (barnyardgrass [1]; [5]): 20 | Barnyardgrass plant response rating (barnyardgrass [1]; [6]): 80 | Plant response rating, Surinam Grass (Surinam grass; [5]): 20 | Surinam Grass plant response rating (Surinam grass; [6]): 60 | Plant response rating, Surinam Grass (Surinam grass; [7]): 10 | Cocklebur plant response rating (cocklebur; [4]): 10 | Plant response rating, Cocklebur (cocklebur; [5]): 40 | Cocklebur plant response rating (cocklebur; [6]): 0 | Corn plant response rating (corn; [6]): 0 | Crabgrass, Large plant response rating (large crabgrass; [4]): 20 | Plant response rating, Crabgrass, Large (large crabgrass; [5]): 30 | Crabgrass, Large plant response rating (large crabgrass; [6]): 100 | Foxtail, Giant plant response rating (giant foxtail; [4]): 10 | Plant response rating, Foxtail, Giant (giant foxtail; [5]): 20 | Foxtail, Giant plant response rating (giant foxtail; [6]): 70 | Plant response rating, Foxtail, Giant (giant foxtail; [7]): 10 | Lambsquarters plant response rating (lambsquarters; [4]): 60 | Plant response rating, Lambsquarters (lambsquarters; [5]): 70 | Lambsquarters plant response rating (lambsquarters; [6]): 100 | Plant response rating, Lambsquarters (lambsquarters; [7]): 80 | Morningglory plant response rating (morningglory; [6]): 10 | Plant response rating, Morningglory (morningglory; [7]): 0 | Plant response rating, Velvetleaf (velvetleaf; [5]): 20 | Velvetleaf plant response rating (velvetleaf; [6]): 10 | Plant response rating, Velvetleaf (velvetleaf; [7]): 0 | Blackgrass plant response rating (blackgrass; 125 g ai/ha): 10 | Plant response rating, Blackgrass (blackgrass): 20 | Plant response rating, Wheat (wheat): 10 | Rice plant response rating (rice): 20 | Sedge, Umbrella plant response rating [2]: 70 | Ducksalad plant response rating (ducksalad): 60 | Barnyardgrass plant response rating (barnyardgrass [3]): 50

From patent US20060069132A1, “Azolecarboxamide herbicides” (priority 2004, published 2006)
